# Reference: patent US7244738B2, “Arylamine-substituted quinazolinone compounds useful as alpha 1A/B adrenergic receptor antagonists” (Roche Palo Alto LLC, priority 2003, dated 2007)
row,Compound,melting point [°C]
1,"COc1cc2[nH]c(N(C)Cc3cccc(C(C)N(C)S(C)(=O)=O)c3)nc(=O)c2c(C)c1OC (stereo not shown) [Example 26, N-[1-(3-{[(6,7-Dimethoxy-5-methyl-4-oxo-1,4-dihydro-quinazolin-2-yl)-methyl-amino]-methyl}-phenyl)-ethyl]-N-methyl-methanesulfonamide]",130 to 133.8
2,"COc1cc2[nH]c(N(C)Cc3cccc(N4C[C@@H](O)CC4=O)c3)nc(=O)c2c(C)c1OC [Example 27, 2-{[3-((S)-4-Hydroxy-2-oxo-pyrrolidin-1-yl)-benzyl]-methyl-amino}-6,7-dimethoxy-5-methyl-1H-quinazolin-4-one]",230.8 to 232.5
3,"CCN(C)CCc1ccc(CN(C)c2nc(=O)c3c(C)c(OC)c(OC)cc3[nH]2)cc1 [Example 28, 2-({4-[2-(Ethyl-methyl-amino)-ethyl]-benzyl}-methyl-amino)-6,7-dimethoxy-5-methyl-1H-quinazolin-4-one]",172.4 to 173.2
4,"CNCCOc1ccc(CN(C)c2nc(=O)c3c(C)c(OC)c(OC)cc3[nH]2)cc1OC [Example 29, 6,7-Dimethoxy-2-{[3-methoxy-4-(2-methylamino-ethoxy)-benzyl]-methyl-amino}-5-methyl-1H-quinazolin-4-one]",168.9 to 169.8
5,"CCN(CCO)Cc1ccc(CN(C)c2nc(=O)c3c(C)c(OC)c(OC)cc3[nH]2)cc1 [Example 30, 2-[(4-{[Ethyl-(2-hydroxy-ethyl)-amino]-methyl}-benzyl)-methyl-amino]-6,7-dimethoxy-5-methyl-1H-quinazolin-4-one]",142 to 145
6,"COc1cc2[nH]c(N(C)Cc3ccc(OCCO)cc3)nc(=O)c2c(C)c1OC [Example 31, 2-{[4-(2-Hydroxy-ethoxy)-benzyl]-methylamino}-6,7-dimethoxy-5-methyl-1H-quinazolin-4-one]",198.5 to 199.5
7,"CCN(CCOC)Cc1ccc(CN(C)c2nc(=O)c3c(OC)c(OC)c(OC)cc3[nH]2)cc1 [Example 32, 2-[(4-{[Ethyl(2-methoxy-ethyl)-amino]-methyl}-benzyl)-methyl-amino]-5,6,7-trimethoxy-1H-quinazolin-4-one]",120 to 122.4
8,"COc1cc2[nH]c(N(C)Cc3cccc(CN(C)CCO)c3)nc(=O)c2c(C)c1OC [Example 33, 2-[(3-{[(2-Hydroxy-ethyl)-methyl-amino]-methyl}-benzyl)-methyl-amino]-6,7-dimethoxy-5-methyl-1H-quinazolin-4-one]",123.8 to 125.6
9,"COc1cc2[nH]c(N(C)Cc3cccc(CN4CCC(OC)C4)c3)nc(=O)c2c(C)c1OC (stereo not shown) [Example 37, 6,7-Dimetrhoxy-2-{[3-(3-methoxy-pyrrolidin-1-ylmethyl)-benzyl]-methyl-amino}-5-methyl-1H-quinazolin-4-one]",151.2 to 152.9
10,"COc1cc2[nH]c(N(C)Cc3ccc4c(c3)CN(C)C4)nc(=O)c2c(C)c1OC [Example 38, 6,7-Dimethoxy-5-methyl-2-[methyl-(2-methyl-2,3-dihydro-1H-isoindol-5-ylmethyl)-amino]-1H-quinazolin-4-one]",214.9 to 224.8
11,"COc1cc2[nH]c(N(C)Cc3cccc(CN4CCC(O)CC4)c3)nc(=O)c2c(OC)c1OC [Example 39, 2-{[3-(4-Hydroxy-piperidin-1-ylmethyl)-benzyl]-methyl-amino}-5,6,7-trimethoxy-1H-quinazolin-4-one]",97.5 to 104.7
12,"COc1cc2[nH]c(N(C)Cc3cccc(CN4CCC(O)CC4)c3)nc(=O)c2c(C)c1OC [Example 40, 2-{[3-(4-Hydroxy-piperidin-1-ylmethyl)-benzyl]-methyl-amino}-6,7-dimethoxy-5-methyl-1H-quinazolin-4-one]",159.2 to 159.6
13,"CCNCc1cccc(CN(C)c2nc(=O)c3c(OC)c(OC)c(OC)cc3[nH]2)c1 [Example 43, 2-[(3-Ethylaminomethyl-benzyl)-methyl-amino]-5,6,7-trimethoxy-1H-quinazolin-4-one]",133.9 to 134.7
14,"COc1cc2[nH]c(N(C)Cc3ccc4c(c3)CN(C)C4)nc(=O)c2c(OC)c1OC [Example 45, 5,6,7-Trimethoxy-2-[methyl-(2-methyl-2,3-dihydro-1H-isoindol-5-ylmethyl)-amino]-1H-quinazolin-4-one]",165.5 to 166.5
15,"COc1cc2[nH]c(N(C)Cc3cccc(CN4CCCC4)c3)nc(=O)c2c(OC)c1OC [Example 46, 5,6,7-Trimethoxy-2-[methyl-(3-pyrrolidin-1-ylmethyl-benzyl)-amino]-1H-quinazolin-4-one]",127 to 129.9
16,"COc1cc2[nH]c(N(C)Cc3cccc(CN4CCC4)c3)nc(=O)c2c(OC)c1OC [Example 47, 2-[(3-Azetidin-1-ylmethyl-benzyl)-methyl-amino]-5,6,7-trimethoxy-1H-quinazolin-4-one]",131.3 to 133.1
17,"COc1cc2[nH]c(N(C)Cc3ccc(OCCCN(C)C)cc3)nc(=O)c2c(OC)c1OC [Example 48, 2-{[4-(3-Dimethylamino-propoxy)-benzyl]-methyl-amino}-5,6,7-trimethoxy-1H-quinazolin-4-one]",108 to 111

row,Compound,melting point [°C]
1,"COc1cc2[nH]c(N(C)Cc3cccc(CN4CCC(O)C4)c3)nc(=O)c2c(C)c1OC (stereo not shown) [Example 49, 2-{[3-(3-Hydroxy-pyrrolidin-1-ylmethyl)-benzyl]-methyl-amino}-6,7-dimethoxy-5-methyl-1H-quinazolin-4-one]",148 to 149.8
2,"COc1cc2[nH]c(N(C)Cc3cccc(N=C4N(C)CCN4C)c3)nc(=O)c2c(C)c1OC [Example 50, 2-{[3-(1,3-Dimethyl-imidazolidin-2-ylidenmeamino)-benzyl]-methyl-amino}-6,7-dimethoxy-5-methyl-1H-quinazoline-4-one]",200.2 to 204.4
3,"COc1cc2[nH]c(N(C)Cc3cccc(CN4CCC(O)C4)c3)nc(=O)c2c(OC)c1OC (stereo not shown) [Example 51, 2-{[3-(3-Hydroxy-pyrrolidin-1-ylmethyl)-benzyl]-methyl-amino}-5,6,7-trimethoxy-1H-quinazolin-4-one]",174.3 to 176.4
4,"CNCC(=O)N(C)C(C)c1cccc(CN(C)c2nc(=O)c3c(C)c(OC)c(OC)cc3[nH]2)c1 (stereo not shown) [Example 52, N-[1-(3-{[(6,7-Dimethoxy-5-methyl-4-oxo-1,4-dihydro-quinazolin-2-yl)-methyl-amino]-methyl}-phenyl)-ethyl]-N-methyl-2-methylamino-acetamide]",118.1 to 120.8
5,"COc1cc2[nH]c(N(C)Cc3cccc(/N=C(\C)N(C)C)c3)nc(=O)c2c(C#N)c1OC [Example 53, N′-(3-{[(5-Cyano-6,7-dimethoxy-4-oxo-1,4-dihydro-quinazolin-2-yl)-methyl-amino]-methyl}-phenyl)-N,N-dimethyl-acetamide]",222.1 to 226.9
6,"COCCN(C)C(C)c1cccc(CN(C)c2nc(=O)c3c(C)c(OC)c(OC)cc3[nH]2)c1 (stereo not shown) [Example 54, 6,7-Dimedthoxy-2-[(3-{1-[(2-methoxy-ethyl)-methyl-amino]-ethyl}-benzyl)-methyl-amino]-5-methyl-1H-quinazolin-4-one]",114.5 to 116.9
7,"COc1cc2[nH]c(N(C)Cc3cccc(CN(C)C)c3)nc(=O)c2c(C)c1OC [Example 56, 2-[(3-Dimethylaminomethyl-benzyl)-methyl-amino]-6,7-dimethoxy-5-methyl-1H-quinazolin-4-one]",174.9 to 176
8,"COc1cc2[nH]c(N(C)Cc3cccc(N4C(=O)CN(C)C4=O)c3)nc(=O)c2c(C)c1OC [Example 60, 3-(3-{[(6,7-Dimethoxy-5-methyl-4-oxo-1,4-dihydro-quinazolin-2-yl)-methyl-amino]-methyl-}-phenyl)-1-methyl-imidazolidine-2,4-dione]",209.3 to 210.8
9,"COc1cc2[nH]c(N(C)Cc3cccc(C(C)N(C)C)c3)nc(=O)c2c(C)c1OC (stereo not shown) [Example 61, 2-{[3-(1-Dimethylamino-ethyl)-benzyl]-methyl-amino}-6,7-dimethoxy-5-methyl-1H-quinazolin-4-one]",137 to 140.1
10,"COc1cc2[nH]c(N(C)Cc3cccc(C(C)N(C)C)c3)nc(=O)c2c(OC)c1OC (stereo not shown) [Example 62, 2-{[3-(1-Dimethylamino-ethyl)-benzyl]-methyl-amino}-5,6,7-trimethoxy-1H-quinazolin-4-one]",122.6 to 125.5
11,"CNC(C)c1cccc(CN(C)c2nc(=O)c3c(OC)c(OC)c(OC)cc3[nH]2)c1 (stereo not shown) [Example 63, 5,6,7-Trimethoxy-2-{methyl-[3-(1-methylamino-ethyl)-benzyl]-amino}-1H-quinazolin-4-one]",131.8 to 134.4
12,"CNC(C)c1cccc(CN(C)c2nc(=O)c3c(C)c(OC)c(OC)cc3[nH]2)c1 (stereo not shown) [Example 64, 6,7-Dimethoxy-5-methyl-2-{methyl[3-(1-methylamino-ethyl)-benzyl]-amino}-1H-quinazolin-4-one]",161.6 to 164.1
13,"COc1cc2[nH]c(N(C)Cc3cccc(N4C(=O)CC(C)C4=O)c3)nc(=O)c2c(C)c1OC (stereo not shown) [Example 65, 1-(3-{[(6,7-Dimethoxy-5-methyl-4-oxo-1,4-dihydro-quinazolin-2-yl)-methyl-amino]-methyl}-phenyl)-3-methyl-pyrrolidine-2,5-dione]",217.8 to 219.2
14,"COc1cc2[nH]c(N(C)Cc3cccc(CNC4CC4)c3)nc(=O)c2c(C)c1OC [Example 66, 2-[(3-Cyclopropylaminomethyl-benzyl)-methyl-amino]-6,7-dimethoxy-5-methyl-1H-quinazolin-4-one]",144.5 to 147.6
15,"COc1cc2[nH]c(N(C)Cc3cccc(CNC(C)C)c3)nc(=O)c2c(C)c1OC [Example 67, 2-{[3-(Isopropylamino-methyl)-benzyl]-methyl-amino}-6,7-dimethoxy-5-methyl-1H-quinazolin-4-one]",143.3 to 144.4
16,"CCCN(C)Cc1cccc(CN(C)c2nc(=O)c3c(C)c(OC)c(OC)cc3[nH]2)c1 [Example 68, 6,7-Dimethoxy-5-methyl-2-(methyl-{3-[(methyl-propyl-amino)-methyl]-benzyl}-amino)-1H-quinazolin-4-one]",128.1 to 129.1
17,"CNCc1cccc(CNc2nc(=O)c3c(C)c(OC)c(OC)cc3[nH]2)c1 [Example 69, 6,7-Dimethoxy-5-methyl-2-(3-methylaminomethyl-benzylamino)-1H-quinazolin-4-one]",142.5 to 142.9
